Results on 1 compound are retold here after paper PMC9577195, “Pharmacokinetics, bioavailability, and plasma protein binding study of glytrexate, a novel multitarget antifolate” (Frontiers in Pharmacology, 2022).

Details of data set [1]: method as in Pangeni et al., 2018. The settings on record: rat, ref Pangeni et al., 2018, cited from earlier work.
The subject of the next data set is human plasma proteins. The arrangement: method as in Robinson et al., 2004. The settings on record: ref Robinson et al., 2004; cited from earlier work.
The next data set deals with KB tumor cells. More on the design: method as in Xing et al., 2017. The settings on record: positive control, ref Xing et al., 2017, read-out: IC50, inhibitory action on KB tumor cells; cited from earlier work.
Data set [2] is described as follows: Pharmacokinetics and bioavailability in rats after single oral and intravenous doses. The data set is classed as in vivo, Sprague-Dawley rats. The settings on record: rat, pemetrexed 20 mg/kg vs glytrexate 25 mg/kg.

For orientation: IC50 means the midpoint of a concentration-inhibition curve. For `Nc1nc2[nH]cc(CCc3ccc(C(=O)N[C@@H](CCC(=O)O)C(=O)O)cc3)c2c(=O)[nH]1` [pemetrexed], the “AUC after intravenous administration” value in data set [1] (intravenous 10 mg/kg) is recorded as 31.3 ± 5.34 μg⋅h/mL. Also, the “T1/2 after intravenous administration” value in data set [1] (intravenous) was 34.4 ± 4.26 min. Moreover, in data set [1] (oral 20 mg/kg), the “AUC after oral administration” value is given as 7.55 ± 0.938 μg⋅h/mL. Also, the oral bioavailability in data set [1] was 12.0 ± 1.45%. The “human plasma protein binding rate” value in the data set on human plasma proteins is recorded as 81%. In addition, the IC50 in the data set with KB tumor cells was 70 nM. Further, the “oral AUC of pemetrexed relative to oral glytrexate” value in data set [2] is “approximately 12 fold”.
